Consider six compounds from patent publication US20080051457A1, “Optically Active Phthalamide Derivative, Agricultural or Horticultural Insecticide, and Method of Using the Same” (priority 2004, published 2008).

Assay type in all cases: in vivo
For assay [1], the system named is Diamond Back Moth (Plutella xylostella). Briefly: Test Example 1: insecticidal activity on diamond back moth, cabbage leaf disc dip. The settings on record: foliar, 192 h, third instar larvae, eight days after the inoculation, read-out: insecticidal activity judged from mortality. From the text: (§1) A cabbage leaf disc (variety: Shikidori) cut into 7 cm-diameter was dipped for about 30 seconds into a chemical solution prepared by diluting a preparation containing each compound listed in Tables 1 and 2 as an active ingredient to adjust the concentration to 50 ppm. After dried, it was put into a plastic Petri dish with a diameter of 9 cm and inoculated with ten of the third instar larvae of diamond back moths. Eight days after the inoculation, the dead and alive larvae were counted. The mortality was calculated according to the following equation and the insecticidal activity was judged according to the criterion shown below. The test was carried out with three replications under the condition of 25° C., 50-60% RH and 16L-8D photoperiod. [formula]

Assay [2] concerns Common Cutworm (Spodoptera litura). Briefly: Test Example 2: insecticidal activity on common cutworm, cabbage leaf disc dip. Conditions: foliar, 192 h, second instar larvae, eight days after the inoculation, read-out: insecticidal activity judged from mortality.
Text: as §1, with “second” for “third”, “common cutworm.” for “diamond back moths.”, “calculated” for “calculated according to the following equation”, “in” for “according to”, “same manner as in Test Example 1.” for “criterion shown below.”, “photoperiod.” for “photoperiod. [formula]”

For assay [3], the system named is Common White (Pieris Rapae). Briefly: Comparative Test 2: control of common white on cabbage by prick-in-hole application at transplanting. Conditions: Dosage 10 mgAI/plant, 27 days after the transplanting. On the procedure: An agent containing, as an active ingredient (AI), each of the compounds shown in the table and a comparative compound 1 (the compound with Compound No. 216 described in JP-A-2001-131141), was put into a prick-in-hole on the ground, and then cabbage seedlings (Variety: YR Seitoku) transplanted onto the treated hole (at the end of April). 27 days after the transplanting, the number of larvae of common white was counted. The control value was calculated according to the expression indicated below, and it was then evaluated in accordance with the criterion noted in Comparative test 1 above. One test group consisted of 20 cabbage loaves. [formula]

As to `Cc1cc(OC(F)(F)F)ccc1NC(=O)c1cccc(I)c1C(=O)N[C@@H](C)CS(C)(=O)=O` [Compound 1-44, (S)-3-iodo-N′-(2-methyl-4-trifluoromethoxyphenyl)-N^2— (1-methyl-2-methylsulfonylethyl)phthalamide], the mortality at 50 ppm in assay [1] and in assay [2] was 100% each time.

In the case of `Cc1cc(C(F)(C(F)(F)F)C(F)(F)F)ccc1NC(=O)c1cccc(Cl)c1C(=O)N[C@@H](C)CS(C)(=O)=O` [Compound 1-77], the “Evaluation of control value (27 days later)” value (“Evaluation of control value” below) in assay [3] is on record as 10 (Mortality 91%-100%).

For the compound `Cc1cc(C(F)(C(F)(F)F)C(F)(F)F)ccc1NC(=O)c1cccc(I)c1C(=O)N[C@@H](C)CS(C)(=O)=O` [Compound 1-5], in assay [3], the “Evaluation of control value” value is given as 10 (Mortality 91%-100%).

Turning to `CSC[C@H](C)NC(=O)c1c(I)cccc1C(=O)Nc1ccc(OC(F)(F)F)cc1C` [Compound 1-42, (S)-3-iodo-N^1-(2-methyl-4-trifluoromethoxyphenyl)-N^2-(1-methyl-2-methylthioethyl)phthalamide], the mortality at 50 ppm in assay [1] and in assay [2] was 100% in each case.

Take `Cc1cc(C(F)(C(F)(F)F)C(F)(F)F)ccc1NC(=O)c1cccc(Br)c1C(=O)N[C@@H](C)CS(C)(=O)=O` [Compound 1-74]: the “Evaluation of control value” value in assay [3] is listed as 10 (Mortality 91%-100%).

In the case of `Cc1cc(C(F)(C(F)(F)F)C(F)(F)F)ccc1NC(=O)c1cccc(I)c1C(=O)N[C@@H](C)C[S+](C)[O-]` (some centres unmarked) [Compound 1-4], the “Evaluation of control value” value in assay [3] is 10 (Mortality 91%-100%).

Broadly, the mortality is the percentage killed.
